# Read-outs that look alike come from different tables or passages of the source. Starred links: 1 amine or outer side, 2 acyl side, 3 side chain; linkers in the order of their positions; H or OH if unused. Positions of bridges follow the written chain, without caps; N, C: chain ends. Non-standard residues stand in square brackets, D forms with d. Residues, ends and D or L forms follow the SMILES beside them. ξ: configuration not given here. *: point of attachment. NMeF = CN[C@@H](Cc1ccccc1)C(=O)O; NMeGABA = CN(CCCC(=O)[*:2])[*:1]; NMeβAla = CN(CCC(=O)[*:2])[*:1]; NMeL = CN[C@@H](CC(C)C)C(=O)O; NMeA = CN[C@@H](C)C(=O)O; Piperidide = C1CCN(*)CC1; ξP = O=C(O)C1CCCN1; Sar = CNCC(=O)O; tBu = CC(C)(C)*
# Experiments:
# [1] = PAMPA (parallel artificial membrane permeability assay); format: in vitro ADME; settings: PAMPA
# Summary of the method: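 Artificial membrane was 10% (w/v) egg lecithin plus 0.5% (w/v) cholesterol in dodecane on a PVDF filter. A 10 mM DMSO stock was added at 0.5% (v/v) to donor buffer (50 mM MOPSO, pH 6.5, 5.0% glycocholic acid). After 18 h at 37 °C, LC/MS or LC/UV gave donor and acceptor levels for Pe.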
# [2] = Metabolic stability in human hepatic microsome; format: in vitro ADME; settings: microsomes
# [3] = membrane permeation rate (Pe), 50 mM MOPSO buffer pH 6.5 with 5.0% glycocholic acid, 37° C., 18 hours, read-out: iPAMPA Pe
# [4] = pH 7.4, human hepatic microsome, NADPH(+), read-out: CL NADPH(+)
Structure (SMILES),"Papp at 18 hours, 50 µM [1, 3] [×10⁻⁶ cm/s]","microsomal CLint at 1 uM [2, 4] [µL/min/mg]","Papp at 18 hours, 50 µM ([1]; pH 6.5) [×10⁻⁶ cm/s]","microsomal CLint at 1 uM ([2]; human, pH 7.4, CL NADPH(+)) [µL/min/mg]"
CC(C)C[C@@H]1NC(=O)[C@H]([C@@H](C)O)NC(=O)[C@H](CC(C)C)N(C)C(=O)CN(C)C(=O)[C@H](Cc2ccccc2)N(C)C(=O)[C@H](C(C)C)NC(=O)C[C@@H](C(=O)N2CCCCC2)NC(=O)[C@H](CC(C)C)N(C)C1=O [DP-690] (V[NMeF][Sar][NMeL]TL[NMeL]D-Piperidide; lactam N-8),33,217,,
CC(C)C[C@@H]1NC(=O)CN(C)C(=O)[C@H](CC(C)C)N(C)C(=O)[C@H]([C@@H](C)O)NC(=O)[C@H](CC(C)C)N(C)C(=O)[C@H](Cc2ccccc2)N(C)C(=O)[C@H](C(C)C)NC(=O)C[C@@H](C(=O)N2CCCCC2)NC1=O [DP-691] (V[NMeF][NMeL]T[NMeL][Sar]LD-Piperidide; lactam N-8),33,326,,
CC(C)C[C@@H]1NC(=O)C[C@@H](C(=O)N2CCCCC2)NC(=O)[C@H](COC(C)(C)C)NC(=O)[C@H](CC(C)C)N(C)C(=O)CN(C)C(=O)[C@H]([C@@H](C)O)NC(=O)[C@H](CC(C)C)N(C)C(=O)[C@H](Cc2ccccc2)N(C)C1=O [DP-692] (L[NMeF][NMeL]T[Sar][NMeL]S(tBu)D-Piperidide; lactam N-8),29,212,,
CC(C)C[C@H]1C(=O)N(C)[C@@H](CC(C)C)C(=O)N[C@H](C(=O)N2CCCCC2)CC(=O)N[C@@H](C(C)C)C(=O)N(C)[C@@H](Cc2ccccc2)C(=O)N[C@@H]([C@@H](C)O)C(=O)N(C)CC(=O)N[C@@H](COC(C)(C)C)C(=O)N1C [DP-693] (V[NMeF]T[Sar]S(tBu)[NMeL][NMeL]D-Piperidide; lactam N-8),35,246,,
CC(C)C[C@H]1C(=O)N(C)[C@@H](CC(C)C)C(=O)N[C@@H](COC(C)(C)C)C(=O)N[C@H](C(=O)N2CCCCC2)CC(=O)N[C@@H](C(C)C)C(=O)N(C)[C@@H](Cc2ccccc2)C(=O)N(C)CC(=O)N[C@@H]([C@@H](C)O)C(=O)N1C [DP-694] (V[NMeF][Sar]T[NMeL][NMeL]S(tBu)D-Piperidide; lactam N-8),33,170,,
CC(C)C[C@H]1C(=O)N(C)[C@@H](CC(C)C)C(=O)N[C@@H](COC(C)(C)C)C(=O)N[C@H](C(=O)N2CCCCC2)CC(=O)N(C)CCCC(=O)N(C)[C@@H](Cc2ccccc2)C(=O)N[C@@H]([C@@H](C)O)C(=O)N(C)CC(=O)N1C [DP-695] ([NMeGABA][NMeF]T[Sar][NMeL][NMeL]S(tBu)D-Piperidide; lactam N-8),15,47,,
CC(C)C[C@@H]1NC(=O)[C@H]([C@@H](C)O)NC(=O)[C@H](CC(C)C)N(C)C(=O)[C@H](Cc2ccccc2)N(C)C(=O)[C@H](C)N(C)C(=O)C[C@@H](C(=O)N2CCCCC2)NC(=O)[C@H](COC(C)(C)C)NC(=O)[C@H](CC(C)C)N(C)C1=O [DP-696] ([NMeA][NMeF][NMeL]TL[NMeL]S(tBu)D-Piperidide; lactam N-8),37,194,,
CC(C)C[C@H]1C(=O)N[C@H](C(=O)N2CCCCC2)CC(=O)N(C)[C@@H](C)C(=O)N(C)[C@@H](Cc2ccccc2)C(=O)N(C)[C@@H](CC(C)C)C(=O)N[C@@H]([C@@H](C)O)C(=O)N(C)CC(=O)N[C@@H](COC(C)(C)C)C(=O)N1C [DP-697] ([NMeA][NMeF][NMeL]T[Sar]S(tBu)[NMeL]D-Piperidide; lactam N-8),35,87,,
CC(C)C[C@@H]1NC(=O)[C@H](CC(C)C)N(C)C(=O)[C@H](COC(C)(C)C)NC(=O)[C@H](Cc2ccccc2)N(C)C(=O)[C@H](C)N(C)C(=O)C[C@@H](C(=O)N2CCCCC2)NC(=O)[C@H](CC(C)C)N(C)C(=O)[C@H]([C@@H](C)O)NC1=O [DP-698] ([NMeA][NMeF]S(tBu)[NMeL]LT[NMeL]D-Piperidide; lactam N-8),31,142,,
CC(C)C[C@H]1C(=O)N(C)[C@@H](Cc2ccccc2)C(=O)N[C@H](C(=O)N2CCCCC2)CC(=O)N(C)[C@@H](C)C(=O)N[C@@H](C)C(=O)N[C@@H]([C@@H](C)O)C(=O)N(C)[C@@H](CC(C)C)C(=O)N[C@@H](Cc2ccccc2)C(=O)N1C [DP-699] ([NMeA]AT[NMeL]F[NMeL][NMeF]D-Piperidide; lactam N-8),29,81,,
CC(C)C[C@H]1C(=O)N[C@@H]([C@@H](C)O)C(=O)N[C@@H](C)C(=O)N(C)[C@@H](Cc2ccccc2)C(=O)N[C@H](C(=O)N2CCCCC2)CC(=O)N(C)[C@@H](C)C(=O)N(C)[C@@H](CC(C)C)C(=O)N[C@@H](Cc2ccccc2)C(=O)N1C [DP-700] ([NMeA][NMeL]F[NMeL]TA[NMeF]D-Piperidide; lactam N-8),49,398,,
CC(C)C[C@@H]1NC(=O)[C@@H](C(C)C)NC(=O)C[C@@H](C(=O)N2CCCCC2)NC(=O)[C@H](Cc2ccccc2)N(C)C(=O)[C@H](CC(C)C)N(C)C(=O)[C@H](Cc2ccccc2)NC(=O)[C@H](C)N(C)C(=O)[C@H]([C@@H](C)O)NC1=O [DP-701] ([dV]LT[NMeA]F[NMeL][NMeF]D-Piperidide; lactam N-8),31,69,,
CC(C)C[C@@H]1NC(=O)[C@@H](C(C)C)NC(=O)C[C@@H](C(=O)N2CCCCC2)NC(=O)[C@H](Cc2ccccc2)NC(=O)[C@H](CC(C)C)N(C)C(=O)[C@H](Cc2ccccc2)N(C)C(=O)[C@H](C)N(C)C(=O)[C@H]([C@@H](C)O)NC1=O [DP-702] ([dV]LT[NMeA][NMeF][NMeL]FD-Piperidide; lactam N-8),25,123,,
CC(C)C[C@@H]1NC(=O)[C@H](Cc2ccccc2)N(C)C(=O)[C@@H](C(C)C)NC(=O)C[C@@H](C(=O)N2CCCCC2)NC(=O)[C@H](Cc2ccccc2)NC(=O)[C@H](CC(C)C)N(C)C(=O)[C@H]([C@@H](C)O)NC(=O)[C@H](CC(C)C)N(C)C1=O [DP-703] ([dV][NMeF]L[NMeL]T[NMeL]FD-Piperidide; lactam N-8),34,222,,
CC(C)C[C@H]1C(=O)N[C@H](C(=O)N2CCCCC2)CC(=O)N(C)CCC(=O)N[C@@H]([C@@H](C)O)C(=O)N(C)[C@@H](C)C(=O)N[C@@H](COC(C)(C)C)C(=O)N(C)[C@@H](Cc2ccccc2)C(=O)N(C)[C@@H](CC(C)C)C(=O)N1C [DP-704] ([NMeβAla]T[NMeA]S(tBu)[NMeF][NMeL][NMeL]D-Piperidide; lactam N-8),29,83,,
CC(C)C[C@H]1C(=O)N(C)[C@@H](CC(C)C)C(=O)N[C@@H]([C@@H](C)O)C(=O)N(C)[C@@H](Cc2ccccc2)C(=O)N[C@@H](COC(C)(C)C)C(=O)N(C)[C@@H](CC(C)C)C(=O)N[C@H](C(=O)N2CCCCC2)CC(=O)N(C)CCC(=O)N1C [DP-705] ([NMeβAla][NMeL][NMeL]T[NMeF]S(tBu)[NMeL]D-Piperidide; lactam N-8),49,265,,
CC(C)C[C@@H]1NC(=O)[C@H](CC(C)C)N(C)C(=O)[C@H](CC(C)C)N(C)C(=O)C[C@@H](C(=O)N2CCCCC2)NC(=O)[C@H](Cc2ccccc2)N(C)C(=O)C2CCCN2C(=O)[C@H]([C@@H](C)O)NC(=O)[C@H](Cc2ccccc2)N(C)C1=O (stereo partly drawn) [DP-706] ([NMeL][NMeL]L[NMeF]T[ξP][NMeF]D-Piperidide; lactam N-8),,,48,264
CC(C)C[C@H]1C(=O)N[C@@H](COC(C)(C)C)C(=O)N[C@H](C(=O)N2CCCCC2)CC(=O)N(C)[C@@H](C)C(=O)N(C)[C@@H](Cc2ccccc2)C(=O)N(C)[C@@H](CC(C)C)C(=O)N[C@@H]([C@@H](C)O)C(=O)N(C)[C@@H](C)C(=O)N1C [DP-707] ([NMeA][NMeF][NMeL]T[NMeA][NMeL]S(tBu)D-Piperidide; lactam N-8),29,84,,
CC(C)C[C@H]1C(=O)N[C@H](C(=O)N2CCCCC2)CC(=O)N[C@H](C)C(=O)N(C)[C@@H](Cc2ccccc2)C(=O)N(C)[C@@H](CC(C)C)C(=O)N[C@@H]([C@@H](C)O)C(=O)N(C)[C@@H](C)C(=O)N[C@@H](COC(C)(C)C)C(=O)N1C [DP-708] ([dA][NMeF][NMeL]T[NMeA]S(tBu)[NMeL]D-Piperidide; lactam N-8),16,35,,
CC(C)C[C@H]1C(=O)N[C@@H](COC(C)(C)C)C(=O)N[C@H](C(=O)N2CCCCC2)CC(=O)N(C)CC(=O)N[C@@H]([C@@H](C)O)C(=O)N(C)[C@@H](C)C(=O)N(C)[C@@H](Cc2ccccc2)C(=O)N(C)[C@@H](Cc2ccccc2)C(=O)N1C [DP-709] ([Sar]T[NMeA][NMeF][NMeF][NMeL]S(tBu)D-Piperidide; lactam N-8),35,90,,
CC(C)C[C@H]1C(=O)N(C)[C@@H](Cc2ccccc2)C(=O)N[C@H](C(=O)N2CCCCC2)CC(=O)N(C)[C@@H](C)C(=O)N[C@@H]([C@@H](C)O)C(=O)N(C)CC(=O)N[C@@H](COC(C)(C)C)C(=O)N(C)[C@@H](Cc2ccccc2)C(=O)N1C [DP-710] ([NMeA]T[Sar]S(tBu)[NMeF][NMeL][NMeF]D-Piperidide; lactam N-8),44,121,,

# From patent US9409952B2, “Peptide-compound cyclization method” (Chugai Seiyaku Kabushiki Kaisha, priority 2011, dated 2016)
